Data taken from US5849736A, “Isoxazoline and isoxazole fibrinogen receptor antagonists” (The DuPont Merck Pharmaceutical Company, priority 1995, dated 1998).
pIC50: −log10 of the molar value. Where a name gives a salt, the structure may show the parent alone.

The molecules below were run on platelet aggregation in human platelet rich plasma (PRP) (assay: Platelet Aggregation Assay (platelet rich plasma, with or without esterase pretreatment)). Conditions: Platelet, preincubated with 100 IU/mL porcine liver esterase 2 hours at 37° C., 100 μM ADP, read-out: Platelet Aggregation Assay IC50 (with esterase).
Assay type: cell-based
Procedure: Venous blood was obtained from the arm of a healthy human donor who was drug-free and aspirin-free for at least two weeks prior to blood collection. Blood was collected into 10 mL citrated Vacutainer tubes. The blood was centrifuged for 15 minutes at 150×g at room temperature, and platelet-rich plasma (PRP) was removed. The remaining blood was centrifuged for 15 minutes at 1500×g at room temperature, and platelet-poor plasma (PPP) was removed. Samples were assayed on a aggregometer (PAP-4 Platelet Aggregation Profiler), using PPP as the blank (100% transmittance). 200 μL of PRP was added to each micro test tube, and transmittance was set to 0%. 20 μL of various agonists (ADP, collagen, arachidonate, epinephrine, thrombin) were added to each tube, and the aggregation profiles were plotted (% transmittance versus time). The results are expressed as % inhibition of agonist-induced platelet aggregation. For the IC50 evaluation, the test compounds were added at various concentrations prior to the activation of the platelets.
Ester prodrugs were preincubated (10^-3 M F.C.) with 100 IU/mL Porcine liver esterase (Sigma Chemical Co., St. Louis, Mo., #E-3128) for 2 hours at 37° C. Aliquots are then diluted in 0.1M Tris, pH 7.4, to the desired concentrations. Aliquots of 20 μl of the esterase pretreated prodrugs are added to 200 μl of human platelet rich plasma. Samples were placed in platelet profiler (aggregometer) for 8 minutes at 37° C., followed by the addition of 100 μM Adenosine Diphosphate, (Sigma Chemical Co., St. Louis, Mo., #A-6521), to induce platelet aggregation. Platelet aggregation was allowed to proceed for 5 minutes. Percent inhibition is calculated using percent aggregation in the presence of the test compound divided by percent aggregation of control, times 100. This value is subtracted from 100, yielding percent inhibition. Calculation of IC50 is performed on a Texas Instruments TI59 with an IC50 program.
Table A below sets forth the antiplatelet activity of representative compounds of the present invention. The indicated compounds were tested for their ability to inhibit platelet aggregation (using platelet rich plasma (PRP)). The IC50 value (the concentration of antagonist which inhibits platelet aggregation by 50% relative to a control lacking the antagonist) is shown. In Table 5 the IC50 values are expressed as: +++=IC50 of <10 μM; ++=IC50 of 10-50 μM; +=IC50 of 50-100 μM (μM=micromolar).

Structure (SMILES) | pIC50
COC(=O)CC(CSc1ccccc1)NC(=O)CC1CC(c2ccc(C(=N)N)cc2)=NO1 (racemic) [Example 350, Methyl 3(R,S)-N-(R,S)-{5-[3-(4-amidinophenyl)isoxazolin-5-ylacetyl]amino}-4-(phenylthio)butanoate hydrochloric acid salt] | > 5.00
COC(=O)CC(CNS(=O)(=O)c1ccccc1)NC(=O)CC1CC(c2ccc(C(=N)N)cc2)=NO1 (racemic) [Example 359, Methyl 3(R,S) -{5(R,S)-N-[3-(4-amidinophenyl)isoxazolin-5-ylacetyl]amino}-4-(phenylsulfonamido)butanoate . trifluoroacetic acid salt] | > 5.00
CCCCS(=O)(=O)NCC(CC(=O)OC)NC(=O)CC1CC(c2ccc(C(=N)N)cc2)=NO1 (racemic) [Example 362, Methyl 3(R,S)-{5(R,S)-N-[3-(4-amidinophenyl)isoxazolin-5-ylacetyl]amino}-4-(n-butylsulfonamido)butanoate . trifluoroacetic acid salt] | > 5.00
COC(=O)CC(CC(=O)OC)NC(=O)CC1CC(c2ccc(C(=N)N)cc2)=NO1 (racemic) [Example 365, Methyl {5(R,S)-N-[3-(4-amidinophenyl)isoxazolin-5-ylacetyl]amino}-4-(methoxycarbonyl)butanoate . trifluoroacetic acid salt] | > 5.00
COC(=O)CCC(CC(=O)OC)NC(=O)CC1CC(c2ccc(C(=N)N)cc2)=NO1 (racemic) [Example 368, trifluoroacetic acid salt] | > 5.00

Same assay, conditions: Platelet, without esterase, given as a bound, not a class symbol, read-out: Platelet Aggregation Assay IC50 (without esterase)

Structure (SMILES) | pIC50
O=C(O)CC1CC(c2ccc(OCC3CCNCC3)cc2)=NO1 (racemic) [Example 7, 3-[4-(Piperidin-4-ylmethoxy)phenyl]-(5R,S)-isoxazolin-5-ylacetic Acid, Trifluoroacetic Acid Salt] | < 4.00
COC(=O)C1(CC(=O)O)CC(c2ccc(OCCC3CCNCC3)cc2)=NO1 (racemic) [Example 33, Trifluoroacetic Acid Salt] | < 4.00
O=C(O)CCN1C(=O)CC2(CC(CCC3CCNCC3)=NO2)C1=O (racemic) [Example 189, 5(R,S)-(2-Piperidin-4-ylethyl-8-(2-carboxyethyl)-1-oxa-2,8-diazaspiro[4.4]non-2-ene-7,9-dione] | < 4.00

Same assay, conditions: Platelet, without esterase, read-out: Platelet Aggregation Assay IC50 (without esterase)

Structure (SMILES) | pIC50
O=C(O)CC1CC(c2ccc(OCCC3CCNCC3)cc2)=NO1 (racemic) [Example 1, 3-(4-[2-Piperidin-4-yl)ethoxy]phenyl]-(5R,S)-isoxazolin-5-ylacetic Acid, Trifluoroacetic Acid Salt] | > 5.00
O=C(O)CCC1CC(c2ccc(OCC3CCNCC3)cc2)=NO1 (racemic) [Example 6, 3-(3-[4-(Piperidin-4-ylmethoxy)phenyl]-(5R,S)-isoxazolin-5-yl)propionic Acid, Trifluoroacetic Acid Salt] | > 5.00
O=C(O)CCC1CC(c2ccc(OCCC3CCNCC3)cc2)=NO1 (racemic) [Example 8, 3-[4-(2-Piperidin-4-yl)ethoxyphenyl]-(5R,S) -isoxazolin-5-ylpropionic Acid, Trifluoroacetic Acid Salt] | 4.00 to 4.30
N=C(N)c1ccc(C2=NOC(CC(=O)NC(CC(=O)O)c3ccccc3)C2)cc1 (racemic) [Example 43, N-[3-(4-Amidinophenyl)isoxazolin-5(R,S)-ylacetyl]-(R,S)-3-amino-3-phenylpropanoic Acid] | > 5.00
N=C(N)c1ccc(C2=NOC(CC(=O)N3CCCCCC3CC(=O)O)C2)cc1 (racemic) [Example 377, 2-(R,S)-2-Carboxymethyl-1-{5-(R,S)-N-[3-(4-amidinophenyl)isoxazolin-5-ylacetyl]}azepine] | > 5.00
COC(=O)CC1C(=O)NCCN1C(=O)CC1CC(c2ccc(C(=N)N)cc2)=NO1 (racemic) [Example 400, 3-(R,S)-(Methoxy-2-oxoethyl)-4-{5-(R,S)-N-[3-(4-amidinophenyl)isoxazolin-5-ylacetyl]}piperazin-2-one] | > 5.00
O=C(N[C@H](C(=O)O)C1CC(c2ccc(OCCC3CCNCC3)cc2)=NO1)OCc1ccccc1 (single isomer, unassigned) [4 (isomer A)] | 4.30 to 5.00
